Experimental data published in BigSolDB 2.1.

solubility (mole fraction) (in ethanol, 283.15 K) | solubility (mole fraction) (in ethanol, 288.15 K) | solubility (mole fraction) (in ethanol, 293.15 K) | solubility (mole fraction) (in ethanol, 298.15 K) | solubility (mole fraction) (in ethanol, 303.15 K) | solubility (mole fraction) (in ethanol, 308.15 K) | solubility (mole fraction) (in ethanol, 313.15 K) | solubility (mole fraction) (in ethanol, 318.15 K) | solubility (mole fraction) (in ethanol, 323.15 K) | solubility (mole fraction) (in water, 283.15 K) | solubility (mole fraction) (in water, 288.15 K) | solubility (mole fraction) (in water, 293.15 K) | solubility (mole fraction) (in water, 298.15 K) | solubility (mole fraction) (in water, 303.15 K) | solubility (mole fraction) (in water, 308.15 K) | solubility (mole fraction) (in water, 313.15 K) | solubility (mole fraction) (in water, 318.15 K) | solubility (mole fraction) (in water, 323.15 K) | Structure (SMILES)
8.37e-05 | 9.39e-05 | 0.000112 | 0.000132 | 0.00015 | 0.00017 | 0.000203 | 0.000231 | 0.000268 | 3.2e-08 | 4.6e-08 | 6e-08 | 8.2e-08 | 1e-07 | 1.32e-07 | 1.79e-07 | 2.15e-07 | 2.79e-07 | Cc1cc(O)c2c(c1)C(=O)c1cc(O)cc(O)c1C2=O
2.21e-05 | 2.58e-05 | 3.15e-05 | 3.83e-05 | 4.45e-05 | 5.2e-05 | 6.32e-05 | 7.71e-05 | 9e-05 | 3.32e-07 | 4.51e-07 | 5.84e-07 | 8.17e-07 | 1.15e-06 | 1.58e-06 | 2.1e-06 | 2.72e-06 | 3.9e-06 | O=C1c2cccc(O)c2C(=O)c2c(O)cc(CO)cc21
